Reference: patent publication US6534079B1, “Passive space insect repellant strip” (priority 1999, dated 2003)

How the values were obtained:
[1] = tested on: Aedes Aegypti female mosquitoes; test: Knockdown efficacy against mosquitoes in glass chamber; format: in vivo; details: for pest or weed control at 5 mg/strip: Aedes aegypti, 24 h, read-out: Dead (%); for KD50 / KD80 / Dead (%): Barex strips coated with 5 mg of each active; for KD50 / KD80: 20 min test period; for knockdown / biological activity in glass chamber (in words): fresh samples, 5 mg, 20 minute test period; for Dead (%): 24 hours post treatment
Procedure: Markings were made to identify the side to be treated with the active. Markings were also made to leave one inch spacing on either ends 12 and 14 of the strip 10 to enable handling. Intermediate solutions of the active in organic solvents were prepared. A micropipettor, calibrated to transfer a known amount of intermediate solution on to the strip, was used to dose the strip with the active. The solution, after transferring onto the strip 10, was made to wet a 2 inch by 8 inch area 16 between ends 12 and 14, and allowed to sit on the bench top until most of the solvent evaporated and the strips appeared dry (which took 15 minutes to 30 minutes). Strips 10 were then either folded twice and held together with a metal clip and kept in a glass jar or were wrapped in aluminum foil and kept in a sealed plastic bag. These were then stored in the refrigerator at −10° C. until further use.
A Glass chamber (0.75 m×0.75 m×0.75 m) was used for the test and was maintained at 80° F. and 50% relative humidity. Three treated strips were placed on a card board tray covered with an aluminum foil and then transferred to the glass chamber. The strips were exposed in the chamber for three minutes to allow insecticide vapors build-up in the enclosed air. Strips were then quickly removed, folded and stored in the refrigerator. Ten laboratory-cultured adult Aedes Aegypti female mosquitoes were released into the chamber. […] After 20 minutes of exposure, all mosquitoes were collected and placed in a container with sucrose pad. […] KD50, KD80, and % Dead values of the tests were obtained for analysis. KD50 and KD80 are defined as the time taken for 50% and 80% of the mosquitoes to get knocked down and % Dead is simply the percentage of mosquitoes that are dead after 24 hour period. The glass chamber was then dismantled and thoroughly wiped with soap solution to remove contamination of the active. The walls were then wiped with a paper towel and allowed to dry before assembling again for the next run.

[2] = Release of active in wind tunnel (residual analysis); format: physicochemical; details: for % Evap Barex: 5 mg transfluthrin coated on Barex (103 sq. cm.) from the named solvent; for % Evap Filter Paper: 5 mg transfluthrin coated on filter paper (103 sq. cm.) from the named solvent
Description: A computer controlled wind tunnel was custom designed using a fan 18 for drawing fresh air designated by arrows 20 past baffles 22 into a chamber 28 containing multiple strips 10 to determine the release of actives from these strips under controlled environmental conditions (see FIG. 2).
Preset wind velocities can be entered into the computer and maintained without operator's involvement during the testing period. Honey comb flow straighteners 24 and 26 were placed on either ends of the wind tunnel to obtain uniform velocity profiles. Strips 10 were placed on the floor of a 12 inch by 12 inch cross sectioned body in triplicates in a staggered fashion so as to equalize any possible errors that arise from spatial dependency of air velocity. All studies were carried out at a constant air flow rate of 2 meters per second as determined by a velocity probe 30 in chamber 28 and at an ambient temperature of 70° F. for 72 hours. The exhaust designated by arrows 32 of the wind tunnel was directly connected to the building ventilation duct to prevent Transfluthrin contamination of the lab. Strips 10 were removed at predetermined intervals and stored in the refrigerator for subsequent analytical or biological testing.
(§1) A validated analytical method was used to determine the residual level of active on the strips using gas chromatography. All samples were analyzed using this method to determine evaporation losses and release rates in the wind tunnel.

[3] = Residual analysis and release rate of large chamber samples; format: physicochemical
Procedure: as §1
The 8 hour aged strips were also sent to analytical for residual analysis. Results, as summarized in Table 18, indicate that the average release of transfluthrin during the 8 hour period is ˜0.2 mg/hr.
Lab studies were also conducted on a portable electric device where a corrugated disc was impregnated with 280 mg of transfluthrin. The disc was placed in a device which has a fan that runs on a battery. Air flows through the holes of the disc releasing the transfluthrin into the environment. Lab studies were conducted on this unit to determine its efficacy. […] Weight loss experiments were also conducted to determine the release rates from this unit.

Culex quinquefasciatus = test: Field trials in living rooms, human bare-leg catch; format: in vivo; details: Malaysia field study
Procedure: Field trials against Culex quinquefasciatus were conducted in living rooms of residential houses in a squatter area at Ujung Batu, Butterworth on the Northwest peninsula of Malaysia on plastic strips coated with transfluthrin. […] A total of four configurations were tested.
Config. A 2 sheets hung together on each of four walls
Config. B 1 sheet hung on each four walls
Config. C 1 sheet hung on each two opposite walls
Config. D 1 sheet hung on a wall
The average volume of the rooms where the test is conducted is 75.5 cubic meters […]. The human baits were seated 1-2 meters away from all the treated sheets and the efficacy was evaluated using the human bare-leg catch technique during the first 0-2 hours, 24 hours, 96 hours, and 168 hours the placing of the test sheets in the rooms.
These tests were conducted under a rigorous test environment. The predominant species collected during the trials was Culex quinquefasciatus which are most tolerant to pyrethroid based household insecticide products among the common mosquitoes found in the living premises in tropical and subtropical regions globally. Due to the local weather changes, the squatter area chosen for the trials indicated lower indoor mosquito density during the pretreatment and treatment trials.

SMILES	pest or weed control at 5 mg/strip [1]	KD50 [1]	KD80 [1]	knockdown / biological activity in glass chamber (in words) [1]	% Evap Barex [2]	% Evap Filter Paper [2]	other results
Cc1c(F)c(F)c(COC(=O)[C@@H]2[C@H](/C=C(\Cl)C(F)(F)F)C2(C)C)c(F)c1F (racemic) [Tefluthrin]	100%	13.00 min	16.67 min	relatively lower activity	–	–	KD50 ([1]; listed as tefluthrin): 13 min
CCC(C)O (centres unmarked) [2-Butanol]	–	–	–	–	60.3%	67.1%	–
CC(C)=O [Acetone]	–	–	–	–	58.3%	57.7%	–
C=CCC1=C(C)C(OC(=O)[C@@H]2[C@@H](C=C(C)C)C2(C)C)CC1=O (some centres unmarked) [Bioallethrin]	–	>20 min	>20 min	either minimal activity or no activity at all	–	–	Dead (%) [1]: 0%
CC1(C)C(C=C(Cl)Cl)C1C(=O)OC(C#N)c1cccc(Oc2ccccc2)c1 (centres unmarked) [Cypermethrin]	0%	>20 min	>20 min	either minimal activity or no activity at all	–	–	–
CCN(CC)C(=O)c1cccc(C)c1 [DEET]	–	>20 min	>20 min	either minimal activity or no activity at all	–	–	Dead (%) [1]: 0%
CC1(C)[C@H](C(=O)O[C@H](C#N)c2cccc(Oc3ccccc3)c2)[C@@H]1C=C(Br)Br [Deltamethrin]	20%	>20 min	>20 min	either minimal activity or no activity at all	–	–	–
CCOP(=S)(OCC)Oc1nc(Cl)c(Cl)cc1Cl [Dursban]	0%	>20 min	>20 min	either minimal activity or no activity at all	–	–	–
C#CCC1=C(C)C(OC(=O)C2C(C=C(C)C)C2(C)C)CC1=O (centres unmarked) [ETOC]	–	>20 min	>20 min	either minimal activity or no activity at all	–	–	Dead (%) [1]: 0%
CCO [Ethanol]	–	–	–	–	70.3%	45.0%	–
CCOC(C)=O [Ethyl Acetate]	–	–	–	–	57.6%	61.1%	–
CC(C)C(C(=O)OC(C#N)c1cccc(Oc2ccccc2)c1)c1ccc(Cl)cc1 (centres unmarked) [Fenvalerate]	0%	>20 min	>20 min	either minimal activity or no activity at all	–	–	–
CCCCCCC [Heptane]	–	–	–	–	86.8%	78.5%	–
CC(C)O [IPA, isopropyl alcohol]	–	–	–	–	50.3%	49.0%	–
CC(=O)OCC(C)C [Isobutyl Acetate]	–	–	–	–	70.9%	63.8%	–
CCC(C)=O [MEK]	–	–	–	–	67.5%	62.4%	–
CO [Methanol]	–	–	–	–	58.3%	47.0%	–
COC(C)=O [Methyl Acetate]	–	–	–	–	57.6%	55.7%	–
CC1(C)C(C=C(Cl)Cl)C1C(=O)OCc1cccc(Oc2ccccc2)c1 (centres unmarked) [Permanone]	–	>20 min	>20 min	either minimal activity or no activity at all	–	–	Dead (%) [1]: 0%
CNC(=O)Oc1ccccc1OC(C)C [Propoxur]	–	–	–	either minimal activity or no activity at all	–	–	–
CC(C)=CC1C(C(=O)OCc2coc(Cc3ccccc3)c2)C1(C)C (centres unmarked) [Resmethrin]	10%	>20 min	>20 min	either minimal activity or no activity at all	–	–	–
CC(C)=CC1C(C(=O)OCc2cccc(Oc3ccccc3)c2)C1(C)C (centres unmarked) [Sumithrin]	0%	>20 min	>20 min	either minimal activity or no activity at all	–	–	–
C1CCOC1 [THF]	–	–	–	–	59.6%	56.4%	–
Cc1ccccc1 [Toluene]	–	–	–	–	60.9%	58.4%	–
CC1(C)[C@H](C=C(Cl)Cl)[C@H]1C(=O)OCc1c(F)c(F)cc(F)c1F [Transfluthrin, (IR-trans)-(2,3,5,6-tetrafluorophenyl)methyl 3-(2,2-dichoroethenyl)-2,2-dimethyl cyclopropane carboxylate]	100%	–	6.83 min	highest activity	–	–	Transfluthrin loss in 8 hr ([3]; Barex strip on fan at 3.5 m/s): 1.5 mg; Release rate of Transfluthrin ([3]; average during the 8 hour period, Barex strip on fan, listed as transfluthrin): ~0.2 mg/h; transfluthrin release rate sufficient to achieve practical control (Culex quinquefasciatus): 0.18 mg/h
C#CC(OC(=O)C1C(C=C(C)C)C1(C)C)/C(C)=C/CC (centres unmarked) [Vapothrin]	–	>20 min	>20 min	either minimal activity or no activity at all	–	–	Dead (%) [1]: 0%
